Targets include Carbonic anhydrase 1 (Homo sapiens, UniProt P00915); Carbonic anhydrase 9 (Homo sapiens, UniProt Q16790); Carbonic anhydrase 2 (Homo sapiens, UniProt P00918); Carbonic anhydrase 12 (Homo sapiens, UniProt O43570).
Where [1] appears, read: tested as the Zn salt or complex.

Sequence of Carbonic anhydrase 12 (O43570 whole entry): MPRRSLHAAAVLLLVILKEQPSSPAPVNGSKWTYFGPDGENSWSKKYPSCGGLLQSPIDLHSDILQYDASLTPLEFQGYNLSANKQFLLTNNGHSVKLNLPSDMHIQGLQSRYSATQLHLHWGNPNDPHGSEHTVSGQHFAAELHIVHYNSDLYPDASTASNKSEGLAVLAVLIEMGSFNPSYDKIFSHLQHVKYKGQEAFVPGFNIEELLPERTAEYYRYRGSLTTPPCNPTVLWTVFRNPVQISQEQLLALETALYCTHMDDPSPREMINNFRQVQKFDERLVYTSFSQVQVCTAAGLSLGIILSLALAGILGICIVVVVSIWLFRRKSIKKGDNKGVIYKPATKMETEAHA
Sequence of Carbonic anhydrase 1 (P00915 whole entry): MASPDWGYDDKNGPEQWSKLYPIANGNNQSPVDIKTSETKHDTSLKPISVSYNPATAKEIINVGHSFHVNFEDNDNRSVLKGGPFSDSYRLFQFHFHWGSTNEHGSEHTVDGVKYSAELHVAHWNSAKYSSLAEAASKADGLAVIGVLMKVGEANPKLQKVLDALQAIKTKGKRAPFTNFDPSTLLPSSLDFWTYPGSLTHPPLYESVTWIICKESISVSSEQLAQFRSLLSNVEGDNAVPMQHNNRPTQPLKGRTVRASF
Description for Carbonic anhydrase 12: Inhibition constant against human carbonic anhydrase XII
Description for Carbonic anhydrase 2: Inhibition constant against human carbonic anhydrase II
Description for Carbonic anhydrase 9: Inhibition constant against human carbonic anhydrase IX

For `Cc1ccc2occ(/C=N/c3ccc(S(=O)(=O)N=C(N)N)cc3)c(=O)c2c1`, the Ki on Carbonic anhydrase 1, on Carbonic anhydrase 9, at Carbonic anhydrase 2 and at Carbonic anhydrase 12 was > 1000 nM in each case. For `Cc1ccc2occ(/C=N/c3cc(C(F)(F)F)c(S(N)(=O)=O)cc3S(N)(=O)=O)c(=O)c2c1`, the Ki – broadly, the dissociation constant of the complex between target and ligand, obtained from inhibition or displacement – at Carbonic anhydrase 9 was 32 nM. `Cc1ccc2occ(/C=N/CCc3ccc(S(N)(=O)=O)cc3)c(=O)c2c1` [listing 1 of 2 here]: the Ki on Carbonic anhydrase 9 was 37 nM. On the same count and under the same terms, as for `NS(=O)(=O)c1ccc(C/N=C/c2coc3ccccc3c2=O)cc1`, the figure is 32 nM.

Consider `Cc1ccc2occ(/C=N/c3ccc(S(N)(=O)=O)cc3)c(=O)c2c1` [listing 1 of 2 here], for which the Ki at Carbonic anhydrase 9 (setting [1]) turned out to be 6.8 nM. Same read-out and setting: for `Cc1ccc2occ(/C=N/CCc3ccc(S(N)(=O)=O)cc3)c(=O)c2c1` [listing 2 of 2 here] the value was 8.2 nM; for `NS(=O)(=O)c1ccc(NCc2coc3ccccc3c2=O)cc1`, 10 nM; for `NS(=O)(=O)c1ccc(CNCc2coc3ccccc3c2=O)cc1`, 8.1 nM. The same measure, in the same setting: for `NS(=O)(=O)c1ccc(CCNCc2coc3ccccc3c2=O)cc1` the value was 7.3 nM; for `Cc1ccc2occ(CNc3ccc(S(N)(=O)=O)cc3)c(=O)c2c1`, 15 nM; for `Cc1ccc2occ(CNCc3ccc(S(N)(=O)=O)cc3)c(=O)c2c1`, 14 nM. On to `Cc1ccc2occ(CNCCc3ccc(S(N)(=O)=O)cc3)c(=O)c2c1`, for which the inhibition constant (Ki) at Carbonic anhydrase 9 (setting [1]) stood at 12 nM. Turning to `N=C(N)NS(=O)(=O)c1ccc(/N=C/c2coc3ccccc3c2=O)cc1`, the inhibition constant Ki on Carbonic anhydrase 1, on Carbonic anhydrase 9, on Carbonic anhydrase 2 and on Carbonic anhydrase 12 was > 1000 nM throughout. The molecule `NS(=O)(=O)c1ccc(CC/N=C/c2coc3ccccc3c2=O)cc1` gave a Ki at Carbonic anhydrase 9 of 26 nM. Still for that read-out and setting: as for `Cc1ccc2occ(/C=N/c3ccc(S(N)(=O)=O)cc3)c(=O)c2c1` [listing 2 of 2 here], the figure is 48 nM.

With `NS(=O)(=O)c1ccc(C/N=C/c2coc3ccccc3c2=O)cc1` (stereo in doubt; 20), the inhibition constant Ki on Carbonic anhydrase 9 (setting [1]) was > 1000 nM.

Consider `NS(=O)(=O)c1ccc(C/N=C/c2coc3ccccc3c2=O)cc1` (stereo in doubt; 21), for which the Ki at Carbonic anhydrase 9 (setting [1]) worked out at 6.3 nM.
